Where “and” joins values, the source holds several entries; their conditions need not be identical. Identical values can stand only once. Bridge positions count the residues as written; N and C are the ends. Square brackets hold non-standard residues; d marks the D form. Peptide text beside a SMILES is read from it. Dab = NCC[C@H](N)C(=O)O
How the values were obtained:
E. coli ATCC 9637 [1] = test: microbe, parasite or virus in culture
Procedure: (§1) An equal volume of a suspension of either E. coli ATCC 9637 (FIG. 6A) or S. aureus ATCC 13709 (FIG. 6B) in 2× Mueller-Hinton broth was added using an automated liquid dispensing system to a 384 well plate, and bacterial growth was measured by absorptimetry as described in Materials and Methods.
(§2) In this example, E. coli strain 9637 and S. aureus strain 13709 were procured from ATCC (Manassas, Va.). For IM permeability assays, E. coli ML-35 (ATCC 43827), a lactose permease-deficient strain with constitutive cytoplasmic β-galactosidase activity was used (26). Calcium chloride transformation of E. coli ML-35 was performed using the plasmid vector pBR322 (6), encoding tetracycline and ampicillin resistance genes (Promega, Madison, Wis.). The transformed strain, E. coli ML-35p, selected by ampicillin resistance, was utilized for the OM permeabilization assay. E. coli ML-35p was maintained on trypticase soy agar plates with 50 μg/ml of ampicillin.
(§3) Minimum inhibitory concentrations of the acylpolyamines were determined by broth microdilution method (1) as per NCCLS guidelines. Mid-log phase Mueller-Hinton broth (MHB; non-cation supplemented) cultures of organisms (40 μl; OD600nm adjusted to 0.5 AU, and diluted ten-fold) were added to equal volumes of two-fold serially diluted acylpolyamines in a 384-well microtiter plate with the help of a Biotek Precision 2000 automated microplate pipetting system. The MICs of rifampicin, polymyxin B (PMB), polymyxin B nonapeptide (PMBN), naphthylacetyl spermine trihydrochloride and methoctramine tetrahydrochloride (Sigma, St. Louis, Mo.) were included as reference compounds for comparison of activity. The microtiter plates were sealed and incubated overnight at 37° C. The plates were read at an absorbance of 600 nm. The lowest concentration of an agent inhibiting growth of the organisms was recorded as the MIC.

E. coli ATCC 9637 [2] = test: Effect of acylpolyamines on MIC of rifampicin (sensitization); format: cell-based, Escherichia coli; conditions: for Sensitization to Rifampin: E. coli strain 9637 preincubated with 10 μM of compound, MIC of rifampicin
Procedure: E. coli ATCC 9637 was seeded in MH broth in chequerboard format in a 384-well plate containing a constant concentration of compound and varying doses of rifampicin. Bacterial growth was monitored by turbidimetry at 600 nm. PMBN and melittin were used as positive controls. Wells containing no test-compound served as negative control. […] Fold sensitization was calculated as MICRifampicin alone/MICRifampicin+10μM Compound.
Perturbation of the outer membrane permeability barrier greatly sensitizes Gram negative organisms to otherwise impermeable hydrophobic solutes, rifampicin being a classic example To determine the effect of acylpolyamines on the MIC of hydrophobic antibiotic, rifampicin, E. coli strain 9637 was used. Overnight cultures of E. coli grown in MHB preincubated with 10 μM of acylpolyamines were added to serially diluted rifampicin in a 384-well microtiter plate. After incubation at 37° C. overnight, the MIC was determined. Controls included PMBN and melittin (positive) and rifampicin alone (negative). All experiments were run in triplicate.

S. aureus ATCC 13709 = test: microbe, parasite or virus in culture
Procedure: as §1, §2, §3

CF-1 mice = conditions: preliminary
Procedure: Detailed biophysical studies on the characterization of the binding site on albumin, stoichiometry, and dependence of binding affinity on mono-versus bis-acylation and acyl chain length will be published elsewhere.
Clinical signs of acute toxicity were monitored for 48 h following a single injection. In subacute studies, 100 μg of 4e was injected daily in the subcutaneous tissue of the flank region, the sites being alternated every day, for a duration of 15 days. The animals were monitored daily for signs of local irritation, weight loss, and food consumption.

[3] = system: E. coli ML-35p (OM) / E. coli ML-35 (IM); format: cell-based, Escherichia coli; conditions: nitrocefin and ONPG hydrolysis
Procedure: OM permeabilizing activity was determined using E. coli ML-35p (parent i^− z^+ y^− ATCC 43827 transformed with pBR322 vector encoding periplasmic β-lactamase); the leakage of periplasmic β-lactamase activity was quantified using nitrocefin as a chromogenic substrate. IM permeabilizing activity was determined using E. coli ML-35 using o-nitrophenyl-β-D-galactopyranoside as the substrate to determine the β-galactosidase activity. In all experiments, PMB, PMBN, and melittin were used as reference compounds.
Nitrocefin (Calbiochem, San Diego, Calif.) was used for the determination of periplasmic β-lactamase activity since PADAC has been reported to be frequently insensitive to β-lactamase activity in clinically relevant strains of Staphylococcus. […] Harvested mid-log phase cultures of E. coli ML-35p (OD600nm adjusted to 0.5 AU) grown in trypticase soy broth were washed thrice with normal saline (0.9%). Nitrocefin was added to a final concentration of 50 μg/ml to the washed bacterial suspension, which was then added to the serially diluted compounds in a 384-well microtiter plate as described earlier. […] After various times of incubation at 37° C., β-lactamase activity was measured spectrophotometrically at 486 nm using an automated Spectramax M2 instrument (Molecular Devices, Sunnyvale, Calif.).
The IM permeability was measured using o-nitrophenyl-β-D-galactopyranoside (“ONPG”; Sigma, St. Louis, Mo.) as the substrate to determine the β-galactosidase activity. […] Washed cultures of E coli ML-35 mixed with 1.5 mM of ONPG in normal saline (0.9%) were added to serially diluted compounds in a 384-well microtiter plate. PMBN and melittin were used as the controls. The production of o-nitrophenol was quantified absorptimetrically at 420 nm after an incubation period of 1 hour at 37° C.
OM and IM permeability were determined respectively from dose-response curves of nitrocefin and ONPG hydrolysis rates as described in Lehrer et al., Concurrent assessment of inner and outer membrane permeabilization and bacteriolysis in E. coli by multiple-wavelength spectrophotometry, J. Immunol.

human erythrocytes = conditions: physiological concentrations (~650 μM) of human serum albumin
Procedure: Melittin was used as a positive control.
Erythrocyte damage was measured using two different techniques. In the first, hemolysis was quantified using extremely diluted, aged human whole blood such that the effects of the compounds binding to plasma proteins would be negligible, and the hemolytic activity would be magnified because of increased osmotic fragility of the erythrocytes as a consequence of depleted Na^+ K^+ ATPase activity. […] Dilute erythrocyte suspensions were prepared by diluting one-week-old whole blood obtained by venipuncture from healthy human volunteers 1:1000 in isotonic (0.9 g/100 ml) saline solution to which was added graded doses of compound. […] The samples were therefore examined with a Beckman-Coulter Vi-Cell™ Cell Viability Analyzer (Beckman-Coulter, Hialeah, Fla.). This instrument implements an automated intravital trypan blue exclusion method using real-time automated video microscopy. Measurement parameters for erythrocytes were gated appropriately on control erythrocytes to specify thresholds of cell recognition and viability. Data on total number of cells/ml and viable cells/ml were collected through 50 captured images per sample with a counting accuracy of ±3%. In order to examine the effect of plasma proteins on the surface activity, some of the experiments were repeated in the presence of near-physiological concentrations of human serum albumin. […] The second method, consequently, was designed to examine the effects of the compounds on whole blood. […] After incubation at 37° C. for 30 min, the plates were centrifuged at 3000 RPM for 10 min, 80 μl of supernatants transferred to a fresh plate, and the amount of free hemoglobin released into the supernatant was quantified using absorptimetry at 570 nm.
The hemolysis induced by the compounds was quantified using an extremely dilute suspension of washed, aged human erythrocytes under protein-free conditions (isotonic saline). […]

[4] = E. coli ATCC 9637, Mueller-Hinton broth, overnight 37° C.
[5] = S. aureus ATCC 13709, Mueller-Hinton broth, overnight 37° C.
[6] = 10 μM compound, E. coli ATCC 9637

Row | Compound | MIC (E. coli ATCC 9637 [1]; [4]) | Sensitization to Rifampin (E. coli ATCC 9637 [2]) | MIC (S. aureus ATCC 13709; [5]) | other results
1 | CC(=O)NCCCNCCCNCCCCNCCCN.O=C(O)C(F)(F)F.O=C(O)C(F)(F)F.O=C(O)C(F)(F)F.O=C(O)C(F)(F)F [Compound 4a] | 62.5 μM and 47.3 μg/ml | 31.25 | – | –
2 | CCCCCCCCC(=O)NCCCNCCCNCCCCNCCCN.O=C(O)C(F)(F)F.O=C(O)C(F)(F)F.O=C(O)C(F)(F)F.O=C(O)C(F)(F)F [Compound 4b] | 62.5 μM and 53.4 μg/ml | 7.81 | 125 μM and 106.96 μg/ml | –
3 | CCCCCCCCCC(=O)NCCCNCCCNCCCCNCCCN.O=C(O)C(F)(F)F.O=C(O)C(F)(F)F.O=C(O)C(F)(F)F.O=C(O)C(F)(F)F [Compound 4c] | 62.5 μM and 54.3 μg/ml | 7.81 | 62.5 μM and 54.3 μg/ml | –
4 | CCCCCCCCCCCCC(=O)NCCCNCCCNCCCCNCCCN.O=C(O)C(F)(F)F.O=C(O)C(F)(F)F.O=C(O)C(F)(F)F.O=C(O)C(F)(F)F [Compound 4d] | 31.25 μM and 28.9 μg/ml | 62.5 | 15.6 μM and 14.4 μg/ml | subacute toxicity (CF-1 mice; 100 μg/mouse, subcutaneously, for 15 days): not revealed any detectable toxicity; acute toxicity (CF-1 mice; up to 1 mg/mouse, one dose subcutaneously): not revealed any detectable toxicity
5 | CCCCCCCCCCCCCCCCCCC(=O)NCCCNCCCNCCCCNCCCN.O=C(O)C(F)(F)F.O=C(O)C(F)(F)F.O=C(O)C(F)(F)F.O=C(O)C(F)(F)F [Compound 4g] | 62.5 μM and 62.2 μg/ml | – | 15.6 μM and 15.5 μg/ml | membrane-permeabilizing activity (OM and IM) [3]: highly membrane-active; hemolytic activity in the presence of human serum albumin (human erythrocytes): completely abrogated
6 | CCCCCCCCCCCCCCC(=O)NCCCNCCCNCCCCNCCCNCCCNC(=O)CCCCCCCCCCCCCC.O=C(O)C(F)(F)F.O=C(O)C(F)(F)F.O=C(O)C(F)(F)F.O=C(O)C(F)(F)F [Compound 8d] | 62.5 μM and 76.3 μg/ml | 15.6 | 250 μM and 305.3 μg/ml | –
7 | CCCCCCCCCCCCCCCCC(=O)NCCCNCCCNCCCCNCCCNCCCNC(=O)CCCCCCCCCCCCCCCC.O=C(O)C(F)(F)F.O=C(O)C(F)(F)F.O=C(O)C(F)(F)F.O=C(O)C(F)(F)F [Compound 8e] | 62.5 μM and 79.4 μg/ml | 15.6 | 250 μM and 319.3 μg/ml | –
8 | CCCCCCCCCCCCCCCCCCC(=O)NCCCNCCCNCCCCNCCCNCCCNC(=O)CCCCCCCCCCCCCCCCCC.O=C(O)C(F)(F)F.O=C(O)C(F)(F)F.O=C(O)C(F)(F)F.O=C(O)C(F)(F)F [Compound 8f] | 62.5 μM and 83.3 μg/ml | 15.6 | 125 μM and 166.7 μg/ml | –
9 | CC(C)C[C@@H]1NC(=O)[C@@H](Cc2ccccc2)NC(=O)[C@H](CCN)NC(=O)[C@@H](NC(=O)[C@H](CCN)NC(=O)[C@@H](N)[C@@H](C)O)CCNC(=O)[C@H]([C@@H](C)O)NC(=O)[C@H](CCN)NC(=O)[C@H](CCN)NC1=O [PMBN, polymyxin B nonapeptide, reference compound] (H-T[Dab][Dab][Dab][dF]L[Dab][Dab]T; lactam 3-C) | 250; (240.7) μg/ml | – | 500; (481.5) μg/ml | MIC (E. coli ATCC 9637 [1]; ATCC 9637): 250; (240.7) μM; MIC (S. aureus ATCC 13709; ATCC 13709): 500; (481.5) μM; MIC of rifampicin in the presence of compound (E. coli ATCC 9637 [2]; [6]): 0.976 µg/mL; sensitization activity (MIC rifampicin alone / MIC rifampicin + 10 μM compound) (E. coli ATCC 9637 [2]; [6]): 16 fold
10 | CO[C@H]1/C=C/O[C@@]2(C)Oc3c(C)c(O)c4c(O)c(c(/C=N/N5CCN(C)CC5)c(O)c4c3C2=O)NC(=O)/C(C)=C\C=C\[C@H](C)[C@H](O)[C@@H](C)[C@@H](O)[C@@H](C)[C@H](OC(C)=O)[C@@H]1C [rifampicin, reference compound] | – | – | – | MIC (E. coli ATCC 9637 [2]; Escherichia coli, ATCC9637, E. coli ATCC 9637, no test compound, read-out: MIC of rifampicin alone): 15.6 µg/mL
11 | Polymyxin B [PMB, reference compound] | 3.9 μM and 5.4 μg/ml | 0.2 | 125 μM and 173.2 μg/ml | –

Source: US20070197658A1, “Polyamines and their use as antibacterial and sensitizing agents” (priority 2006, published 2007)
